# Activity calls are given as the source filed them. The rule behind the calls is not given here.
# Molecular target: Chaperone protein DnaK (Escherichia coli (strain K12)) (UniProt P0A6Y8)
# Test: binders of DnaK substrate-binding domain, biophysical, NMR, chaperone (AID 1033)
# Conditions: Purified DnaK SBD, NMR ligand binding
# Chain of Chaperone protein DnaK (Escherichia coli (strain K12)) (P0A6Y8 whole entry, looked up, the tested form may be a part): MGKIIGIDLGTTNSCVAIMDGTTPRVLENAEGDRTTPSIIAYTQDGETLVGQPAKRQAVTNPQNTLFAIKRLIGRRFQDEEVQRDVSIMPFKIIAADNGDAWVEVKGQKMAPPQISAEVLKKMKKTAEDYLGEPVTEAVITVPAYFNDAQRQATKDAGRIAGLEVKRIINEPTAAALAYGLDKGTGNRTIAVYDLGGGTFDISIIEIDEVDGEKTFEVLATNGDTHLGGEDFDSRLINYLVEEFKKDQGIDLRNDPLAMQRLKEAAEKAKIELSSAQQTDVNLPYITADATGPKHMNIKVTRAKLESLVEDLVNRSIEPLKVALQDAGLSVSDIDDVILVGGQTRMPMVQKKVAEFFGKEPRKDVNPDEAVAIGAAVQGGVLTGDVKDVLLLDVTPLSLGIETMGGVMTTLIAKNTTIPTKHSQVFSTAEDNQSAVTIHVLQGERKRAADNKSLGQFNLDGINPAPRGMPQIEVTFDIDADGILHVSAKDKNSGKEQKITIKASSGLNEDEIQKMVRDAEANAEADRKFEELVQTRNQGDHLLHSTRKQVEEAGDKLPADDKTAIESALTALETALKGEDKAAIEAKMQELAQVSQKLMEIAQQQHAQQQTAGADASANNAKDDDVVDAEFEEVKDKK
row,Structure (SMILES),Kd
1,CC(=O)Nc1ccc(S(N)(=O)=O)cc1,> 4 mM (inactive)
2,O=C(O)C1CCN(C(=O)c2cccs2)CC1,> 4 mM (inactive)
3,C[C@@H]1[C@H]2[C@H](O[C@@H]3O[C@H](CO)[C@@H](O)[C@H](O)[C@H]3O)OC=C(C(=O)O)[C@H]2C[C@@H]1O,> 4 mM (inactive)
4,Cc1n[nH]c(C)c1NC(=O)c1cccc(F)c1,> 4 mM (inactive)
5,O=C1CC(=O)N(c2ccccc2)c2ccccc21,> 4 mM (inactive)
6,CC(=O)Nc1nnc(-c2ccccc2S(C)(=O)=O)o1,> 4 mM (inactive)
7,CCOC(=O)c1ccc(F)cc1F,> 4 mM (inactive)
8,CN(C)C(=O)CSc1nc2ccccc2c(=O)[nH]1,> 4 mM (inactive)
9,O=C1NC(=O)C(C(C[N+](=O)[O-])c2ccc(O)cc2)C(=O)N1 (centres undefined),> 4 mM (inactive)
10,O=C(c1cc(-c2ccccc2)on1)N1CCCC1,> 4 mM (inactive)
11,Cc1cccc(-n2c(N)cc(=O)[nH]c2=S)c1C,> 4 mM (inactive)
12,CCOC(=O)CNC(=O)CSc1nnc(C)c(=O)[nH]1,> 4 mM (inactive)
13,O=c1[nH]c(=O)n(-c2ccc(F)cc2)c(O)c1/C=C1/C=CC=N1,> 4 mM (inactive)
14,Cc1cc(C(=O)NCc2ccccc2Br)no1,> 4 mM (inactive)
15,Oc1ccccc1-c1cc(C(F)(F)F)[nH]n1,> 4 mM (inactive)
16,COc1ccc(C)cc1-n1c(-c2ccncc2)n[nH]c1=S,> 4 mM (inactive)
17,Nc1ncnc2c1ncn2C1C[C@H](O)[C@@H](CO)O1 (some centres undefined),> 4 mM (inactive)
18,Cc1c(C(=O)Nn2cnnc2)oc2ccccc12,> 4 mM (inactive)
19,O=c1ccnc(Nc2ccccc2O)[nH]1,> 4 mM (inactive)
20,c1cncc(Nc2nc(-c3cccnc3)cs2)c1,> 4 mM (inactive)

row,Structure (SMILES),Kd
1,O=C(O)CC12CC3CC(CC(O)(C3)C1)C2,> 4 mM (inactive)
2,NC(=O)CN1CCCCCC1=O,> 4 mM (inactive)
3,NCc1cn2ccccc2n1,> 4 mM (inactive)
4,Cc1ccc(C(=O)N2CC(=O)NC(=O)C2)cc1,> 4 mM (inactive)
5,OCn1nnn(-c2ccccc2)c1=S,> 4 mM (inactive)
6,CC(=O)Nc1nnc(-c2ccco2)o1,> 4 mM (inactive)
7,CC1CCC(N2CCN(c3ncccn3)CC2)CC1 (centres undefined),> 4 mM (inactive)
8,Cc1cc(NC(=O)c2c(F)c(F)c(F)c(F)c2F)no1,> 4 mM (inactive)
9,COc1ccc(-c2oc3c(CC=C(C)C)c(O[C@@H]4O[C@H](CO)[C@@H](O)[C@H](O)[C@H]4O)cc(O)c3c(=O)c2O[C@@H]2O[C@@H](C)[C@H](O)[C@@H](O)[C@H]2O)cc1,> 4 mM (inactive)
10,CC(=O)c1ccc(CC2SC(N)=NC2=O)cc1 (centres undefined),> 4 mM (inactive)
11,CCC(/C=C/[C@@H](C)[C@H]1CCC2C3CC=C4C[C@@H](O)CC[C@]4(C)C3CC[C@@]21C)C(C)C (some centres undefined),> 4 mM (inactive)
12,Cc1ccccc1NC(=O)C1CCC(=O)N1 (centres undefined),> 4 mM (inactive)
13,CC(=O)Nc1ccc(NC(C)=O)c(C(F)(F)F)c1,> 4 mM (inactive)
14,CNC(=S)Nc1cccc(C(=O)O)c1,> 4 mM (inactive)
15,CCCS(=O)(=O)N1CCN(c2ccccn2)CC1,> 4 mM (inactive)
16,Cc1cccc(NC(=O)NC(N)=O)c1,> 4 mM (inactive)
17,O=C(NCCCSc1ncccn1)Nc1ncccn1,> 4 mM (inactive)
18,CCOC(=O)C1=C(C)N2CCN=C2S1,> 4 mM (inactive)
19,OC12CC3CC(CC(C3)C1)C2,> 4 mM (inactive)
20,CCn1nnnc1Oc1ccc(Cl)cc1,> 4 mM (inactive)

row,Structure (SMILES),Kd
1,O=C(O)c1ccc(-n2cncn2)cc1,> 4 mM (inactive)
2,O=[N+]([O-])c1cccc(-c2c[n+](=O)c3c(n2[O-])CCC3)c1,> 4 mM (inactive)
3,CSc1ccc(C(=S)N2CCN(C)CC2)cc1,> 4 mM (inactive)
4,Cc1nc2ccccc2c2c1C(=O)N(N)C2=O,> 4 mM (inactive)
5,Nc1nc(-c2ccccc2)cc(=O)[nH]1,> 4 mM (inactive)
6,Cc1cc(N(CN2CCCC2=O)C(=O)c2ccccc2)no1,> 4 mM (inactive)
7,CC(=O)c1c(O)cc(C)n(Cc2ccccc2)c1=O,> 4 mM (inactive)
8,Cc1ccc(C(=O)N2CCC(C(N)=O)CC2)cc1C,> 4 mM (inactive)
9,COc1cc(-c2coc3cc(O[C@@H]4O[C@H](CO)[C@@H](O)[C@H](O)[C@H]4O)c(OC)c(O)c3c2=O)cc(O)c1OC,> 4 mM (inactive)
10,COc1ccc2cc3[n+](cc2c1OC)CCc1cc2c(cc1-3)OCO2,> 4 mM (inactive)
11,CCC(C)C(=O)O[C@H]1[C@H](O)C2C(CN3CC(C)CCC3[C@@]2(C)O)C2C[C@]34O[C@]5(O)C(OC(=O)C(C)(O)C(C)O)CC[C@@]3(C)C5C(OC(C)=O)[C@@H](OC(C)=O)C4[C@@]21O (some centres undefined),> 4 mM (inactive)
12,CCCCN1C(=O)N(C)C2NC(=O)NC21 (centres undefined),> 4 mM (inactive)
13,CC(=O)Nc1ccncc1NC(C)=O,> 4 mM (inactive)
14,NCC1CN(Cc2ccccc2)CCO1 (centres undefined),> 4 mM (inactive)
15,O=C(CS(=O)(=O)c1ccccc1)N1CCCCCC1,> 4 mM (inactive)
16,O=C1NC(=O)C(Cc2cccs2)C(=O)N1,> 4 mM (inactive)
17,CCOC(=O)C1C(C=C(C)C)C1(C)C (centres undefined),> 4 mM (inactive)
18,COc1ccccc1CNc1nc2nc(C)cc(=O)n2[nH]1,> 4 mM (inactive)
19,Nc1cccc2nonc12,> 4 mM (inactive)

# From PubChem BioAssay AID1033 (Sanford-Burnham Center for Chemical Genomics, 2008)
